Data reported in patent publication US11311522B1 (Cavion, Inc., priority 2018, dated 2022).
“And” between values parts separate entries of the source, which are not always exact repeats. Identical values can stand only once.

Tests used:
[1] = system: patients with essential tremor; test: T-CALM: TETRAS total score; type: in vivo, human
Protocol: The Total TETRAS score was defined as the sum of the TETRAS performance subscale total score and the TETRAS ADL subscale score. TETRAS TOTAL score combines both patient reported outcome and objective measurement of tremor amplitude in a single score. Analyses of the TETRAS-ADL was conducted using the same type of ANCOVA model as described for the TETRAS-PS, using two-sided tests at the alpha=0.05 level of significance (FIG. 3 and Table 3).

WAG/Rij rats = test: WAG/Rij rat model of absence epilepsy; type: in vivo; conditions: for Percent of inhibition: 10 mg/kg oral
Description: Other T-type antagonists from structurally diverse series have shown similar efficacy in this model (Broicher, 2007; Blumenfeld, 2008; Broicher, 2008; Shipe, 2008; Yang, 2008; Uebele, 2009; Russo, 2010; Russo, 2011).
Data were scored with automated seizure analysis software, averaged, and normalized to enable treatment comparisons (FIG. 76)
Control animals received vehicle administrations. […] Source: Merck TTA Package Description (FIG. 79).

[2] = Off-target panel of enzyme and receptor binding sites, ion channels, transporters; conditions: 10 μM
[3] = In vitro plasma protein binding, rat; type: in vitro ADME
Description: (§1) CX-8998 distributes readily to the brain in rats and to brain and cerebral spinal fluid (CSF) in dogs.

[4] = In vitro plasma protein binding, dog; type: in vitro ADME
Description: as §1

[5] = system: T1, CYP1A2, CYP3A4, CYP2C8, CYP2C9, CYP2C19, CYP2D6; test: CYP inhibition in human liver microsomes; type: in vitro ADME; conditions: human liver microsomes
T1 construct: IC50, CYP1A2, CYP3A4, CYP2C8, CYP2C9, CYP2C19, CYP2D6; other: human liver microsomes

[6] = system: patients with schizophrenia; test: PN004: safety; type: in vivo, human
Description: The primary efficacy endpoint was the mean change from baseline in the Positive and Negative Syndrome Scale (PANSS) total score at Week 4; secondary efficacy endpoints included responder rates on the PANSS total score at Week 4 and the change from baseline in the Clinical Global Impressions—Severity of Illness Scale at Week 4. Safety was monitored by adverse events, laboratory evaluations, ECGs, Holter monitoring, vital signs, the Simpson-Angus Scale, the Barnes Akathisia Rating Scale, the Abnormal Involuntary Movement Scale, and the Columbia Suicide-Severity Rating scale (C-SSRS).

in vivo [7] = conditions: Beagle, dog, in vivo, po
[8] = 90-day oral toxicology in Beagle dogs; conditions: dog, in vivo; for NOAEL at 90 days: both
[9] = T-CALM: plasma concentrations by 5-in-1 LC/MS/MS; type: in vivo, human; conditions: for Plasma concentration, mean: trough
Protocol: Additionally, at Visit 4, a post-dose sample will be collected as close to 4 hours post-dose as possible, but within the window of 4-6 hours post-dose (i.e., a total of two PK samples are collected at Visit 4.)
Assay performances were satisfactory and met acceptance criteria for system performance suitability, quantitation range, calibration linearity, assay accuracy and precision, and assay recovery.

[10] = Single-dose toxicokinetic study in dogs; type: in vivo; conditions: dog, plasma, po, 800 mg/kg
[11] = Brain penetration in male rats; type: in vivo; conditions: rat, brain and plasma, oral, 25 mg/kg, read-out: Brain-to-plasma ratio
CYP2C9 = target: T2, CYP2C9 (Homo sapiens, UniProt P11712); test: In vitro metabolism (liver microsomes, hepatocytes, recombinant CYPs, anti-CYP antibodies); type: in vitro ADME; conditions: recombinant CYP2C9
T2 construct: host or cells: pooled liver microsomes, hepatocytes and recombinant CYP enzymes
Description: (§2) Glucuronide conjugates of the oxygenated metabolites are detected in human, monkey, and dog hepatocyte preparations. […] However, the abundance of CYP3A5, CYP2C19, and CYP2D6 in human liver microsomes is low (2%-5%) relative to the primary contributors, CYP3A4 (˜30%) and CYP2C9 (˜20%). […] Information on reproductive and developmental toxicology was obtained in a 28-day pivotal female fertility study in rats and in preliminary embryo-fetal development studies in rats and rabbits.

CYP2B6 = CYP2B6 mRNA induction in human hepatocytes; type: in vitro ADME
Description: as §2

in vivo [12] = conditions: female, rat, po, 10 mg/kg/day
[13] = Phase 1 multiple-dose pharmacokinetics (PN002/Part II); conditions: human, plasma
[14] = rat plasma, read-out: In vitro plasma protein binding (converted)
[15] = dog plasma, read-out: In vitro plasma protein binding (converted)
[16] = read-out: Free fraction in dog plasma
[17] = Study PN004, subjects with schizophrenia, BID Days 1 to 28, CX-8998 N = 86, Olanzapine N = 47

T2 sequence (P11712 whole entry): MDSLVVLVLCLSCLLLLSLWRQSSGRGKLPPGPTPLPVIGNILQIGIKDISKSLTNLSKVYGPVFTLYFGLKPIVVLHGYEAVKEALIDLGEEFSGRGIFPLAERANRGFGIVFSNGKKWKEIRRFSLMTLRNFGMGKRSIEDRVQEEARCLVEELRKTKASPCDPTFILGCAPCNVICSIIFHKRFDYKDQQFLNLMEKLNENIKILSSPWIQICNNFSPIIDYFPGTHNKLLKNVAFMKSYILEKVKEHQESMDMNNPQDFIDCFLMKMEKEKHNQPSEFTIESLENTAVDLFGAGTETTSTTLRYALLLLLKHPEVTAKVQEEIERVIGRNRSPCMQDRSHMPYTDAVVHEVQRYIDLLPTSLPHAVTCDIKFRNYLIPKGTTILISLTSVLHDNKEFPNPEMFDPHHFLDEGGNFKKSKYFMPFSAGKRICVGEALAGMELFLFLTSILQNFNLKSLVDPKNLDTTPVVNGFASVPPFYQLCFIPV

In the case of `CC(C)c1ccc(CC(=O)N[C@H](C)c2ccc(OCC(F)(F)F)cn2)cc1` [CX-8998], the “Change from baseline in TETRAS-Total, LS mean” value ([1]; Day 15 (8 mg BID)) is reported as −7.5±1.42 and −7.5, the “Change from baseline in TETRAS-Total, LS mean” value ([1]; Day 28 (10 mg BID)) is reported as −9.0±1.66 and −9 and the “>5 to 10 point worsening” value ([1]; TETRAS Total, Day 15) is reported as 0 n (%). For the same molecule, the “>10 point worsening” value ([1]; TETRAS Total, Day 15) was 0 n (%), the 0 change ([1]; TETRAS Total, Day 28) was 0 n (%) and the “>5 to 10 point worsening” value ([1]; TETRAS Total, Day 28) was 0 n (%). For the same molecule, the “>10 point worsening” value ([1]; TETRAS Total, Day 28) was 0 n (%), the “Reduction in cumulative time spent in seizure” value (WAG/Rij rats; 1 mg/kg, 4 hours after dosing) was 55% and the “Suppression of seizure frequency” value (WAG/Rij rats; 10 mg/kg) was “up to 50%”. The Percent of inhibition (WAG/Rij rats) was 77%, the “Suppression of accumulated time in seizure” value (WAG/Rij rats; 10 mg/kg, 4 hours after dosing) was 77% and the “Suppression of accumulated time in seizure” value (WAG/Rij rats; 10 mg/kg, 15 hours after dosing) was 54%. For the same molecule, the Off-target effects ([2]; over 170 targets) was “No off-target effects”, the fraction unbound [3, 14] was ~0.008 and the fraction unbound ([3]; rats, read-out: free fraction) was 0.008. For the same molecule, the fraction unbound ([3]; rodents, read-out: Plasma-free fraction) was 0.004, the fraction unbound [4, 15] was ~0.003 and the fraction unbound ([4]; dogs, read-out: free fraction) was 0.003. The fraction unbound [4, 16] was 0.003, the IC50 [5] was > 20 µM and the Anxiety [6, 17] was 2 (2.3). For the same molecule, the “At least 1 adverse event” value [6, 17] was 41 (47.7), the Chronic pharyngitis [6, 17] was 2 (2.3) and the Dizziness [6, 17] was 2 (2.3). The Headache [6, 17] was 2 (2.3), the Insomnia [6, 17] was 13 (15.1) and the Rhinopharyngitis [6, 17] was 2 (2.3). The Schizophrenia [6, 17] was 3 (3.5), the Sinus tachycardia [6, 17] was 2 (2.3) and the Somnolence [6, 17] was 2 (2.3). For the same molecule, the “Subjects who discontinued treatment because of adverse events” value ([6]; in vivo) was 10.5%, the “Subjects with dizziness and vertigo” value ([6]; in vivo) was 4.7% and the AUC (in vivo [7]; female, 300 mg/kg/day) was 2080 µM·h. For the same molecule, the Cmax (in vivo [7]; female, 300 mg/kg/day) was 158000 nM, the AUC (in vivo [7]; male, 3 mg/kg/day) was 62.5 µM·h and the Cmax (in vivo [7]; male, 3 mg/kg/day) was 8400 nM. It also gave a Cmax (in vivo [7]; male, 30 mg/kg/day) of 73500 nM, a Cmax (in vivo [7]; male, 300 mg/kg/day) of 253000 nM and an NOAEL at 90 days ([8]; Beagle, po) of 30 mg/kg/day. The NOAEL at 90 days ([8]; beagle, oral) was 30 mg/kg/day, the AUC ([8]; female, Beagle, po, 10 mg/kg/day) was 163 µM·h and the AUC ([8]; female, beagle, po, 30 mg/kg/day) was 363 µM·h. The AUC ([8]; male, Beagle, po, 30 mg/kg/day) was 335 µM·h.
For `C[C@@H](NC(=O)Cc1ccc(C(C)(C)O)cc1)c1ccc(OCC(F)(F)F)cn1` [M02], the “Plasma concentration, mean” value ([9]; Visit 2 (Day 8), 4 mg BID) was 168 nM, the “Plasma concentration, mean” value ([9]; Visit 3 (Day 15), 8 mg BID) was 325 nM and the “Plasma concentration, mean” value ([9]; Visit 4 (Day 28), 10 mg BID) was 406 nM. For the same molecule, the concentration at 4 h ([9]; human, plasma, oral, Visit 4 (Day 28), 10 mg BID, 4 hours post-dose) was 438 nM, the Percent of inhibition (WAG/Rij rats) was 67% and the “Off-target effects (≥50% inhibition or stimulation)” value ([2]; 87 targets) was “No significant results”. It also gave a Tmax ([10]; female) of 8 h, a Tmax ([10]; male) of 8 h and a fraction unbound [3, 14] of 0.29. It also gave a fraction unbound ([3]; rats, read-out: free fraction) of 0.29, a fraction unbound [4, 15] of 0.18 and a fraction unbound ([4]; dogs, read-out: free fraction) of 0.18. The fraction unbound [4, 16] was 0.18, the Kp at 2 h [11] was 0.32 and the “KM for CYP2C9 reactions (formation)” value (CYP2C9) was ~3 µM. The IC50 [5] was > 20 µM, the CYP2B6 induction (CYP2B6) was “mild to moderate inducers” and the AUC (in vivo [12]) was 31.7 µM·h. For the same molecule, the Cmax (in vivo [12]) was 5400 nM, the AUC ([8]; female, Beagle, po, 10 mg/kg) was 103 µM·h and the AUC ([8]; female, Beagle, po, 30 mg/kg) was 209 µM·h. It also gave an AUC ([8]; female, Beagle, po, 100 mg/kg/day) of 339 µM·h, an AUC ([8]; male, Beagle, po, 10 mg/kg) of 149 µM·h and an AUC ([8]; male, Beagle, po, 30 mg/kg) of 213 µM·h. For the same molecule, the AUC ([8]; male, Beagle, po, 100 mg/kg/day) was 1800 µM·h, the half-life ([13]; 2 mg) was 15 h and the AUC ([13]; 2 mg, AUC24, M02, Day 7, CX-8998 2 mg once daily) was 0.93 µM·h. The Cmax ([13]; 2 mg, M02, Day 7, CX-8998 2 mg once daily) was 54 nM, the half-life ([13]; 4 mg) was 15.4 h and the AUC ([13]; 4 mg, AUC24, M02, Day 7, CX-8998 4 mg once daily) was 1.86 µM·h. For the same molecule, the Cmax ([13]; 4 mg, M02, Day 7, CX-8998 4 mg once daily) was 106 nM, the half-life ([13]; 8 mg) was 12.2 h and the AUC ([13]; 8 mg, AUC24, M02, Day 7, CX-8998 8 mg once daily) was 3.54 µM·h. The Cmax ([13]; 8 mg, M02, Day 7, CX-8998 8 mg once daily) was 219 nM, the half-life ([13]; 12 mg) was 14.5 h and the AUC ([13]; 12 mg, AUC24, M02, Day 7, CX-8998 12 mg once daily) was 4.55 µM·h. It also gave a Cmax ([13]; 12 mg, M02, Day 7, CX-8998 12 mg once daily) of 287 nM, a half-life ([13]; 18 mg) of 12.8 h and an AUC ([13]; 18 mg, AUC24, M02, Day 7, CX-8998 18 mg once daily) of 7.97 µM·h. The Cmax ([13]; 18 mg, M02, Day 7, CX-8998 18 mg once daily) was 481 nM and the half-life ([13]; male, oral) was 12.2 to 15.4 h.
